The nature of data set [1]: Stability against bacterial proteases in E. coli lysate. Format: in vitro ADME. The following applies: E. coli lysate with 0.5 mg/mL protein concentration, 37° C. As for the experimental part:
For the bacterial lysate, 500 mL of nutrient broth (Carl Roth GmbH+Co. KG, Karlsruhe) was inoculated with E. coli BL21 A1 and incubated overnight at 37° C. 2×250 mL bacterial suspension were centrifuged for 25 min at 5000 rpm and 4° C. in a Beckman Avanti™ J-20-XP centrifuge with JLA-10.500 rotor (Beckman Coulter, Fullerton, U.S.A.). The pellets were each suspended in 30 mL PBS (pH 7.4) and centrifuged again in a Beckman Allegra™ 2IR centrifuge (Beckman Coulter, Fullerton, U.S.A.). The pellets were each suspended in 10 mL PBS and were disrupted with ultrasound (Vibra-cell™ microtip, Fisher Bioblock Scientific, Illkirch, France) 2×5 min (750 W; amplitude 40%; 2 s on/3 s off) on ice. The bacterial lysates were combined and 1 mL aliquots were centrifuged at 15400 rpm for 20 min at 4° C. (Beckman Allegra™). The supernatants were removed and stored at −20° C. The protein content of the bacterial lysate was determined by protein determination according to Bradford.
A solution of 0.15 μg/mL peptide in bacterial lysate with protein content of 1.5 mg/mL or 0.5 mg/mL was incubated at 37° C. After 0, 30, 60, 120, 240 or 360 min, 200 μL was taken from each and the proteins were precipitated with 50 μL of 15% trichloroacetic acid. Then it was incubated for 10 min at 4° C. and then centrifuged for 5 min at 13000 rpm in a Minispin desktop centrifuge. 210 μL was taken from the supernatant and neutralized with 1 mol/L sodium hydroxide solution. The intact peptide and the degradation products were analyzed by HPLC. 60 μL of 3% aqueous acetonitrile with 0.1% trifluoroacetic acid (TFA) was added to the solution and 250 μL of the mixture was injected. After chromatographic separation, the constituents were identified by MALDI-TOF-MS,
In order to investigate the stability against bacterial proteases, a lysate was prepared from an overnight culture of E. coli BL21 A1 and the peptides were incubated in it. Using Bradford protein determination, the protein concentration was adjusted to 0.5 or 1.5 mg/mL.

The next data set has as its system E. coli BL21 A1. It counts as cell-based, Escherichia coli. In short, it runs like this:
(§1)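 Broth microdilution in 1% TSB with twofold peptide series, final 128 μg/mL to 62.5 ng/mL, against 5×10^6 bacteria/mL stock suspension added 1:1. Incubated 20 h at 37 °C, growth read by absorbance at 595 nm; MIC is the lowest concentration with no growth, determined in triplicate.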

For data set [2] the following is noted: mouse, serum.
Experimental: (§2) For this, the peptides and peptidomimetics were dissolved in water, mouse serum was added and the peptide concentration was adjusted to 75 μg/mL. While shaking continuously, the mixture was incubated at 37° C. After 0, 30, 60, 120, 240 and 360 minutes, in each case an aliquot was taken and mixed with 15% aqueous trichloroacetic acid (Carl Roth GmbH & Co. KG; Karlsruhe, Germany). After incubation on ice for a further 10 minutes, the precipitated serum proteins were centrifuged off (5 min, 13400 rpm, MiniSpin, Eppendorf AG, Hamburg, Germany). The supernatant was removed, neutralized with 1 mol/L aqueous sodium hydroxide solution (Fluke Chemie GmbH, Buchs, Switzerland) and stored at −20° C. until analysis.
(§3) The supernatants were analyzed by RP-HPLC with a linear acetonitrile gradient (Biosolve BV, Valkenswaard, The Netherlands) in the presence of 0.1% trifluoroacetic acid (TFA, UV-grade, Fluka Chemie GmbH, Buchs, Switzerland) as ion-pairing reagent. The fractions were co-crystallized with α-cyanohydroxycinnamic acid (Bruker Daltonik GmbH; Bremen, Germany) as matrix (5.3 mg/mL in 50% acetonitrile in 0.1% aqueous TFA) and were analyzed with a tandem mass spectrometer (MALDI-TOF/TOF-MS, 4700 Proteomics Analyzer; Applied Biosystems GmbH, Weiterstadt, Germany) in the positive-ion reflector mode. The proportion of intact peptides and their degradation products or metabolites could thus be identified and quantified at the individual time points. The control used was 25% aqueous mouse serum, which was analyzed in parallel for the same time intervals.
The conditions of data set [3]: 25% aqueous mouse serum, 37° C., 75 μg/mL peptide.
Experimental: as §2, §3
The test system of the next data set is M. luteus 10240. In words: Growth inhibition assay (microdilution MIC). Format: cell-based, Micrococcus luteus. The note with it: 10240, 20 h. In short, it runs like this:
as §1

The conditions of data set [4]: mouse, serum. This is another data set of the same source.
Experimental: as §2, §3

Values after ≈ are worked out from the molar mass of the structure shown. Like-named read-outs stand apart in the source and are kept apart here. Non-standard residues stand in square brackets, D forms with d. Residues, ends and D or L forms follow the SMILES beside them. No end group written: not given here. *: point of attachment. Hyp = O=C(O)[C@@H]1C[C@@H](O)CN1; Tle = CC(C)(C)[C@H](N)C(=O)O; Orn = NCCC[C@H](N)C(=O)O; NHPr = CCCN*

This is an account of results in patent publication US8686113B2 (priority 2009, dated 2014).
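For Half-life in 25% mouse serum in this document: intact peptide left at successive time points measured by reversed-phase HPLC with an acetonitrile gradient in the supernatant after precipitation of serum proteins.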

With `CC[C@H](C)[C@H](NC(=O)[C@H](CCCN)NC(=O)[C@H](CCCNC(=N)N)NC(=O)[C@@H]1CCCN1C(=O)[C@@H]1CCCN1C(=O)[C@H](CCCNC(=N)N)NC(=O)[C@@H]1CCCN1C(=O)[C@H](CCCNC(=N)N)NC(=O)[C@@H]1CCCN1C(=O)[C@H](CC(C)C)NC(=O)[C@H](Cc1ccc(O)cc1)NC(=O)[C@@H]1CCCN1C(=O)[C@@H]1CCCN1C(=O)[C@H](CCCCN)NC(=O)[C@H](CC(=O)O)NC(=O)[C@@H](N)C(C)C)C(=O)N[C@@H](Cc1ccc(O)cc1)C(=O)N[C@@H](CC(N)=O)C(=O)N[C@@H](CCCN)C(N)=O` [SEQ ID NO. 72, VDKPPYLPRPRPPROIYNO-NH2] (H-VDKPPYLPRPRPPR[Orn]IYN[Orn]-NH2), the half-life in data set [1] was 1.92 h; in data set [2] (Half-life in 25% mouse serum, 25% aqueous mouse serum, 37° C., 75 μg/mL peptide), over 6 h; in data set [2] (half-life in 25% aqueous mouse serum, 25% serum), over 6 h. Further, in the data set on E. coli BL21 A1, the MIC values against E. coli is 8 µg/mL (≈ 3.47 µM). The “MIC E. coli BL21 A1” value in the data set on E. coli BL21 A1 (BL21, 20 h) came to 8 µg/mL (≈ 3.47 µM).

As for `CC[C@H](C)[C@H](NC(=O)[C@H](CCCN)NC(=O)[C@H](CCCNC(=N)N)NC(=O)[C@@H]1C[C@@H](O)CN1C(=O)[C@@H]1CCCN1C(=O)[C@H](CCCNC(=N)N)NC(=O)[C@@H]1CCCN1C(=O)[C@H](CCCNC(=N)N)NC(=O)[C@@H]1CCCN1C(=O)[C@H](CC(C)C)NC(=O)[C@H](Cc1ccc(O)cc1)NC(=O)[C@@H]1CCCN1C(=O)[C@@H]1CCCN1C(=O)[C@H](CCCCN)NC(=O)[C@H](CC(=O)O)NC(=O)[C@@H](N)C(C)C)C(=O)N[C@@H](Cc1ccc(O)cc1)C(=O)N[C@@H](CC(N)=O)C(=O)N[C@@H](CCCN)C(N)=O` [SEQ ID NO. 107] (H-VDKPPYLPRPRP[Hyp]R[Orn]IYN[Orn]-NH2), in data set [1], the half-life was 3.58 h.

As to `CC(C)C[C@H](NC(=O)[C@H](Cc1ccc(O)cc1)NC(=O)[C@@H]1CCCN1C(=O)[C@@H]1CCCN1C(=O)[C@H](CCCCN)NC(=O)[C@H](CC(=O)O)NC(=O)[C@@H](N)C(C)C)C(=O)N1CCC[C@H]1C(=O)N[C@@H](CCCNC(=N)N)C(=O)N1CCC[C@H]1C(=O)N[C@@H](CCCNC(=N)N)C(=O)N1CCC[C@H]1C(=O)N1CCC[C@H]1C(=O)N[C@@H](CCCNC(=N)N)C(=O)N[C@@H](CCCN)C(=O)N[C@H](C(=O)N[C@@H](Cc1ccc(O)cc1)C(=O)N[C@@H](CC(N)=O)C(=O)N[C@@H](CCCN)C(N)=O)C(C)(C)C` [SEQ ID NO. 109, VDKPPYLPRPRPPRO-Tle-YNO-NH2] (H-VDKPPYLPRPRPPR[Orn][Tle]YN[Orn]-NH2), in data set [1], the half-life was over 4 h.

`CC(C)C[C@H](NC(=O)[C@H](Cc1ccc(O)cc1)NC(=O)[C@@H]1CCCN1C(=O)[C@@H]1CCCN1C(=O)[C@H](CCCCN)NC(=O)[C@H](CC(=O)O)NC(=O)[C@@H](N)C(C)C)C(=O)N1CCC[C@H]1C(=O)N[C@@H](CCCNC(=N)N)C(=O)N1CCC[C@H]1C(=O)N[C@@H](CCCNC(=N)N)C(=O)N1CCC[C@H]1C(=O)N1C[C@H](O)C[C@H]1C(=O)N[C@@H](CCCNC(=N)N)C(=O)N1C[C@H](O)C[C@H]1C(=O)N[C@H](C(=O)N[C@@H](Cc1ccc(O)cc1)C(=O)N[C@@H](CC(N)=O)C(=O)N[C@@H](CCCN)C(N)=O)C(C)(C)C` [SEQ ID NO. 110] (H-VDKPPYLPRPRP[Hyp]R[Hyp][Tle]YN[Orn]-NH2): the half-life in data set [1] was over 4 h. Also, in the data set on E. coli BL21 A1 (1% TSB, 20 h at 37° C.), the “MIC E. coli BL21 A1” value was found to be 2 µg/mL (≈ 0.862 µM).

Turning to `CC[C@H](C)[C@H](NC(=O)[C@H](CCCNC(=N)N)NC(=O)[C@H](CCCNC(=N)N)NC(=O)[C@@H]1CCCN1C(=O)[C@@H]1CCCN1C(=O)[C@H](CCCNC(=N)N)NC(=O)[C@@H]1CCCN1C(=O)[C@H](CCCNC(=N)N)NC(=O)[C@@H]1CCCN1C(=O)[C@H](CC(C)C)NC(=O)[C@H](Cc1ccc(O)cc1)NC(=O)[C@@H]1CCCN1C(=O)[C@@H]1CCCN1C(=O)[C@H](CCCCN)NC(=O)[C@H](CC(=O)O)NC(=O)[C@@H](N)C(C)C)C(=O)N[C@@H](Cc1ccc(O)cc1)C(=O)N[C@@H](CC(N)=O)C(=O)N[C@@H](CCCN)C(N)=O` [compound 50] (H-VDKPPYLPRPRPPRRIYN[Orn]-NH2), the “MIC E. coli BL21 A1” value with E. coli BL21 A1 (BL21, 20 h) was 8 µg/mL (≈ 3.41 µM). In addition, the “Half-life in 25% mouse serum” value in data set [3] turned out to be 2 h. The “MIC M. luteus 10240” value in the data set on M. luteus 10240 came to 16 µg/mL (≈ 6.81 µM).

`CCCNC(=O)[C@H](CCCNC(=N)N)NC(=O)[C@H](CC(N)=O)NC(=O)[C@H](Cc1ccc(O)cc1)NC(=O)[C@@H](NC(=O)[C@H](CCCNC(=N)N)NC(=O)[C@H](CCCNC(=N)N)NC(=O)[C@@H]1CCCN1C(=O)[C@@H]1CCCN1C(=O)[C@H](CCCNC(=N)N)NC(=O)[C@@H]1CCCN1C(=O)[C@H](CCCNC(=N)N)NC(=O)[C@@H]1CCCN1C(=O)[C@H](CC(C)C)NC(=O)[C@H](Cc1ccc(O)cc1)NC(=O)[C@@H]1CCCN1C(=O)[C@@H]1CCCN1C(=O)[C@H](CCCCN)NC(=O)[C@H](CC(=O)O)NC(=O)[C@@H](N)C(C)C)[C@@H](C)CC` [compound 58] (H-VDKPPYLPRPRPPRRIYNR-NHPr) showed a half-life in data set [4] of 1 h. Also, in the data set with E. coli BL21 A1 (BL21, 20 h), the “MIC E. coli BL21 A1” value came to 4 µg/mL (≈ 1.64 µM). Moreover, the “Half-life in 25% mouse serum” value in data set [3] is over 2 h. Moreover, the “MIC M. luteus 10240” value with M. luteus 10240 came to 8 µg/mL (≈ 3.29 µM).

For `CC[C@H](C)[C@H](NC(=O)[C@H](CCCN)NC(=O)[C@H](CCCNC(=N)N)NC(=O)[C@@H]1CCCN1C(=O)[C@@H]1CCCN1C(=O)[C@H](CCCNC(=N)N)NC(=O)[C@@H]1CCCN1C(=O)[C@H](CCCNC(=N)N)NC(=O)[C@@H]1CCCN1C(=O)[C@H](CC(C)C)NC(=O)[C@H](Cc1ccc(O)cc1)NC(=O)[C@@H]1CCCN1C(=O)[C@@H]1CCCN1C(=O)[C@H](CCCCN)NC(=O)[C@H](CC(=O)O)NC(=O)[C@@H](N)C(C)C)C(=O)N[C@@H](Cc1ccc(O)cc1)C(=O)N[C@@H](CC(N)=O)C(=O)N[C@@H](CCCNC(=N)N)C(N)=O` [compound 61] (H-VDKPPYLPRPRPPR[Orn]IYNR-NH2), the half-life in data set [4] came to 1.08 h. Further, the “MIC E. coli BL21 A1” value in the data set on E. coli BL21 A1 (BL21, 20 h) turned out to be 8 µg/mL (≈ 3.41 µM). In addition, the “Half-life in 25% mouse serum” value in data set [3] stood at 1.5 h. Also, in the data set on M. luteus 10240, the “MIC M. luteus 10240” value turned out to be 16 µg/mL (≈ 6.81 µM).

In turn, `CCCNC(=O)[C@H](CCCNC(=N)N)NC(=O)[C@H](CC(N)=O)NC(=O)[C@H](Cc1ccc(O)cc1)NC(=O)[C@@H](NC(=O)[C@H](CCCN)NC(=O)[C@H](CCCNC(=N)N)NC(=O)[C@@H]1CCCN1C(=O)[C@@H]1CCCN1C(=O)[C@H](CCCNC(=N)N)NC(=O)[C@@H]1CCCN1C(=O)[C@H](CCCNC(=N)N)NC(=O)[C@@H]1CCCN1C(=O)[C@H](CC(C)C)NC(=O)[C@H](Cc1ccc(O)cc1)NC(=O)[C@@H]1CCCN1C(=O)[C@@H]1CCCN1C(=O)[C@H](CCCCN)NC(=O)[C@H](CC(=O)O)NC(=O)[C@@H](N)C(C)C)[C@@H](C)CC` [compound 71] (H-VDKPPYLPRPRPPR[Orn]IYNR-NHPr) yielded a half-life in data set [4] of 1.75 h. Moreover, the “Half-life in 25% mouse serum” value in data set [3] was over 6 h. The “MIC M. luteus 10240” value in the data set with M. luteus 10240 was found to be 8 µg/mL (≈ 3.35 µM).

As for `CC(C)C[C@H](NC(=O)[C@H](CCCN)NC(=O)[C@H](CCCNC(=N)N)NC(=O)[C@@H]1CCCN1C(=O)[C@@H]1CCCN1C(=O)[C@H](CCCNC(=N)N)NC(=O)[C@@H]1CCCN1C(=O)[C@H](CCCNC(=N)N)NC(=O)[C@@H]1CCCN1C(=O)[C@H](CC(C)C)NC(=O)[C@H](Cc1ccc(O)cc1)NC(=O)[C@@H]1CCCN1C(=O)[C@@H]1CCCN1C(=O)[C@H](CCCCN)NC(=O)[C@H](CC(=O)O)NC(=O)[C@@H](N)C(C)C)C(=O)N[C@@H](Cc1ccc(O)cc1)C(=O)N[C@@H](CC(N)=O)C(=O)N[C@@H](CCCN)C(N)=O` [compound 73] (H-VDKPPYLPRPRPPR[Orn]LYN[Orn]-NH2), the half-life in data set [1] is 1.5 h. In addition, the “MIC E. coli BL21 A1” value in the data set with E. coli BL21 A1 (BL21, 20 h) stood at 8 µg/mL (≈ 3.47 µM). In addition, in the data set with M. luteus 10240, the “MIC M. luteus 10240” value is 16 µg/mL (≈ 6.94 µM).

Consider VDKPPYLPRPRPPRRIYNR [compound 19], for which the “MIC E. coli BL21 A1” value against E. coli BL21 A1 (BL21, 20 h) came to 32 µg/mL. For the same compound, the “Half-life in 25% mouse serum” value in data set [3] was under 0.5 h. In the data set on M. luteus 10240, the “MIC M. luteus 10240” value worked out at 64 µg/mL.
